Experimental data: patent publication US9340497B2, “Method for the preparation of (3S,3S′) 4,4′-disulfanediylbis (3-aminobutane 1-sulfonic acid)” (QUANTUM GENOMICS, priority 2010, dated 2016)

Assays:
[1] = as described by Bodineau et al. in Hypertension 2008 51, 1318-1325; cited from earlier work
[2] = Thermal stability of the product of each step (Table 1); format: physicochemical; settings: product of step (e) of the preferred method; cell text split over r17-r19: No decomposition observed
Description: Table 1 provides the reaction enthalpies, the purities (determined by HPLC and expressed as molar percentages) and the stabilities of the products of each step for this preferred method.

[3] = Stability of solid forms (neat, hydrates) under ambient conditions; format: physicochemical; settings: ambient conditions: 15-25° C., atmospheric pressure, relative humidity above 50%; hydrate mixtures evolve to the trihydrate within a few days
Method: Any mixture of hydrates of compound I will evolve within a few days towards the trihydrate form in ambient conditions. Ambient conditions as used herein refer to a temperature between 15° C. and 25° C., at atmospheric pressure, and a relative humidity rate above 50%.

In the case of N[C@@H](CCS(=O)(=O)O)CSSC[C@@H](N)CCS(=O)(=O)O [Compound I, (3S,3S′) 4,4′-disulfanediylbis(3-aminobutane 1-sulfonic acid)], the Anti-hypertensor efficacy [1] is given as “efficient anti-hypertensor agent”, the melting point is given as 78 °C and the “Stability: decomposition” value [2] is given as “No”.

In the case of N[C@@H](CCS(=O)(=O)O)CSSC[C@@H](N)CCS(=O)(=O)O.O.O.O [compound I, (3H2O)], the “Relative stability of solid form” value [3] is reported as “most stable form”.
